# Source: ChEMBL document CHEMBL1140570, “Synthesis and antimicrobial evaluation of guanylsulfonamides” (2007)
# The source made the active and inactive calls. The rule behind the calls is not given here.
# Key:
# Aspergillus flavus [1] = test: Antifungal activity against Aspergillus flavus NCIM 539 by serial dilution method; format: functional
# Staphylococcus aureus = test: Antibacterial activity against Staphylococcus aureus ATCC 25923 by serial dilution method; format: functional
# Pseudomonas aeruginosa = test: Antibacterial activity against Pseudomonas aeruginosa ATCC 27853 by serial dilution method; format: functional
# Enterococcus faecalis = test: Antibacterial activity against Streptococcus faecalis ATCC 29212 by serial dilution method; format: functional
# Bacillus subtilis [2] = test: Antibacterial activity against Bacillus subtilis ATCC 6033 by serial dilution method; format: functional
# Candida albicans [3] = test: Antifungal activity against Candida albicans NCIM C27 by serial dilution method; format: functional
# Aspergillus niger [4] = test: Antifungal activity against Aspergillus niger NCIM 590 by serial dilution method; format: functional
# Klebsiella pneumoniae [5] = test: Antibacterial activity against Klebsiella pneumoniae ATCC 13883 by serial dilution method; format: functional
# Escherichia coli [6] = test: Antibacterial activity against Escherichia coli ATCC 25922 by serial dilution method; format: functional
# Aspergillus niger [7] = test: Antifungal activity against Aspergillus niger NCIM 590 at 64 ug/mL by serial dilution method; format: functional, organism-based
# Candida albicans [8] = test: Antifungal activity against Candida albicans NCIM C27 at 64 ug/mL by serial dilution method; format: functional, organism-based
# Aspergillus flavus [9] = test: Antifungal activity against Aspergillus flavus NCIM 539 at 64 ug/mL by serial dilution method; format: functional, organism-based
# Bacillus subtilis [10] = test: Antibacterial activity against Bacillus subtilis ATCC 6033 at 64 ug/mL by serial dilution method; format: functional, organism-based
# Escherichia coli [11] = test: Antibacterial activity against Escherichia coli ATCC 25922 at 64 ug/mL by serial dilution method; format: functional, organism-based
# Klebsiella pneumoniae [12] = test: Antibacterial activity against Klebsiella pneumoniae ATCC 13883 at 64 ug/mL by serial dilution method; format: functional, organism-based
Compound,MIC (Aspergillus flavus [1]) [µg/mL],MIC (Staphylococcus aureus) [µg/mL],MIC (Pseudomonas aeruginosa) [µg/mL],MIC (Enterococcus faecalis) [µg/mL],MIC (Bacillus subtilis [2]) [µg/mL],MIC (Candida albicans [3]) [µg/mL],MIC (Aspergillus niger [4]) [µg/mL],MIC (Klebsiella pneumoniae [5]) [µg/mL],MIC (Escherichia coli [6]) [µg/mL],Activity (Aspergillus niger [7]),Activity (Candida albicans [8]),Activity (Aspergillus flavus [9]),Activity (Bacillus subtilis [10]),Activity (Escherichia coli [11]),Activity (Klebsiella pneumoniae [12])
Nc1nc2c(ncn2-c2ccc(S(=O)(=O)N3CCCCC3)cc2Cl)c(=O)[nH]1,64,4,8,4,32,64,64,16,16,,,,,,
Nc1nc2c(ncn2-c2ccc(S(=O)(=O)N3CCCCC3)cc2F)c(=O)[nH]1,,32,64,16,32,,,32,64,inactive,inactive,inactive,,,
CCn1cc(C(=O)O)c(=O)c2cc(F)c(N3CCNCC3)cc21 [NORFLOXACIN],,8,8,8,32,,,16,16,,,,,,
Nc1nc2c(ncn2-c2ccc(S(=O)(=O)N3CCCCC3)cc2)c(=O)[nH]1,,64,64,64,,,,,,inactive,inactive,inactive,inactive,inactive,inactive

# The remaining compounds from weak to strong by MIC (Staphylococcus aureus), led by results:
MIC (Aspergillus flavus [1]) [µg/mL],MIC (Staphylococcus aureus) [µg/mL],MIC (Pseudomonas aeruginosa) [µg/mL],MIC (Enterococcus faecalis) [µg/mL],MIC (Bacillus subtilis [2]) [µg/mL],MIC (Candida albicans [3]) [µg/mL],MIC (Aspergillus niger [4]) [µg/mL],MIC (Klebsiella pneumoniae [5]) [µg/mL],MIC (Escherichia coli [6]) [µg/mL],Compound,Activity (Aspergillus niger [7]),Activity (Candida albicans [8]),Activity (Aspergillus flavus [9]),Activity (Bacillus subtilis [10]),Activity (Escherichia coli [11]),Activity (Klebsiella pneumoniae [12])
,64,64,64,64,,,,,CC1CCN(S(=O)(=O)c2ccc(-n3cnc4c(=O)[nH]c(N)nc43)cc2)CC1,inactive,inactive,inactive,inactive,inactive,inactive
16,64,64,64,16,32,16,32,32,COc1cc(S(=O)(=O)N2CCCCC2)ccc1-n1cnc2c(=O)[nH]c(N)nc21,,,,,,
64,32,64,32,64,64,32,32,32,CC1CCN(S(=O)(=O)c2ccc(-n3cnc4c(=O)[nH]c(N)nc43)c(F)c2)CC1,,,,,,
16,32,64,32,16,32,32,32,16,COc1cc(S(=O)(=O)N2CCC(C)CC2)ccc1-n1cnc2c(=O)[nH]c(N)nc21,,,,,,
32,4,16,8,32,64,32,16,16,CC1CCN(S(=O)(=O)c2ccc(-n3cnc4c(=O)[nH]c(N)nc43)c(Cl)c2)CC1,,,,,,
